Reference: patent US20260365670A1, “EGFR INHIBITORS AND USES THEREOF” (DIZAL (JIANGSU) PHARMACEUTICAL CO., LTD., priority 2022, published 2026)
Read-outs that look alike come from different tables or passages of the source.

What was measured:
Type in all cases: cell-based
[1] = test system: Ba/F3 cells expressing EGFR mutations; test: Cell proliferation assay, Ba/F3 cells expressing EGFR mutations (CellTiter-Glo, 72 hours); details: CellTiter-Glo
Procedure, shortened: (§1)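 In RPMI1640 medium (PC-9 with 10% FBS), each cell line was seeded at its own density: Ba/F3 5000 and PC-9 500 per well. A compound series was added the next day, with a time-zero viability plate read in parallel. Percent proliferation was subtracted for G0 and referenced to DMSO, and GI50 was derived by curve fitting.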

[2] = test system: PC-9; test: Cell proliferation assay, PC-9 cells (CellTiter-Glo, 72 hours); details: PC9 cells, CellTiter-Glo, read-out: PC9 GI50
Procedure, shortened: as §1

[3] = test system: A-431; test: Cell proliferation GI50, A-431 cells (Table 6)
Description: [Worded in the source for another cell line; this cell line is reported under the same test.] Ba/F3 cells expressing EGFR mutations were seeded in 384-well plates at 5000 cells/well in RPMI1640 medium containing […]. PC-9 at 500 cells/well was seeded into 384-well plates in RPMI1640 medium with 10% FBS. After overnight incubation, the assay plates were dosed with compounds at a series of concentrations. Alongside dosing the assay plates, the day 0 plate was processed using CellTiter-Glo® Luminescent Cell Viability Assay (Promega) to measure the number of viable cells (G0). The assay plates were further incubated for 72 hours and the number of viable cells (G3) was measured. The percentage of proliferation was calculated as: […]=100×(G3 value of sample well−G0 value)/(G3 value of DMSO control−G0 value). The concentration of compound producing 50% proliferation inhibition (GI50) was further calculated in best-fit curves using XLFit software. N/A=not available.

[4] = Mus musculus, BaF3, 72 h, BaF3 cells, EGFR DEL19-C797S, read-out: DEL19-C797S/BaF3 GI50
[5] = Mus musculus, BaF3, 72 h, BaF3 cells, EGFR DEL19-T790-C797S, read-out: DEL19-T790-C797S/BaF3 GI50
[6] = Mus musculus, BaF3, 72 h, BaF3 cells, EGFR L858R, read-out: L858R/BaF3 GI50
[7] = Mus musculus, BaF3, 72 h, BaF3 cells, EGFR L858R-C797S, read-out: L858R-C797S/BaF3 GI50
[8] = Mus musculus, BaF3, 72 h, BaF3 cells, EGFR L858R-T790-C797S, read-out: L858R-T790-C797S/BaF3 GI50
[9] = Mus musculus, BaF3, 72 h, BaF3 cells, EGFR L858R-T790M, read-out: L858R-T790M/BaF3 GI50
[10] = Mus musculus, BaF3, 72 h, EGFR DEL19-T790M, read-out: DEL19-T790M GI50
[11] = Homo sapiens, A-431, A-431 cells
[12] = BaF3 cells, EGFR DEL19-C797S, read-out: DEL19-C797S/BaF3 GI50
[13] = BaF3 cells, EGFR DEL19-T790-C797S, read-out: DEL19-T790-C797S/BaF3 GI50
[14] = BaF3 cells, EGFR L858R, read-out: L858R/BaF3 GI50
[15] = BaF3 cells, EGFR L858R-C797S, read-out: L858R-C797S/BaF3 GI50
[16] = BaF3 cells, EGFR L858R-T790-C797S, read-out: L858R-T790-C797S/BaF3 GI50
[17] = BaF3 cells, EGFR L858R-T790M, read-out: L858R-T790M/BaF3 GI50
[18] = EGFR DEL19-T790M, read-out: DEL19-T790M GI50

Row | Compound | GI50 [1, 4] | GI50 [1, 5] | GI50 [1, 6] | GI50 [1, 7] | GI50 [1, 8] | GI50 [1, 9] | GI50 [1, 10] | GI50 ([2]; Homo sapiens, PC-9, 72 h) | GI50 [3, 11] | GI50 [1, 12] | GI50 [1, 13] | GI50 [1, 14] | GI50 [1, 15] | GI50 [1, 16] | GI50 [1, 17] | GI50 [1, 18] | GI50 [2] | GI50 ([3]; A-431 cells)
1 | Cn1ncc2c1OCCN1CCC(C)(C1)n1c(nc3ccc(N4CCOCC4)cc31)NC(=O)c1cc-2c(=O)n(C)c1 (centres unmarked) [Example A11, 5,13,27-trimethyl-17-(morpholin-4-yl)-7-oxa-4,5,10,14,21,23,27-heptaazahexacyclo[23.3.1.1^{10,13}.0^{2,6}.0^{14,22}.0^{15,20}]triaconta-1(29),2(6),3,15,17,19,21,25-octaene-24,28-dione] | 666 nM | 1750 nM | 2690 nM | 2250 nM | 2150 nM | 1720 nM | 1790 nM | 903 nM | 2610 nM |  |  |  |  |  |  |  |  | 
2 | C[C@@H]1CCCOc2c(cnn2C)-c2cc(cn(C)c2=O)C(=O)Nc2nc3ccc(N4CC5CC4CN5C)cc3n2C1 (some centres unmarked) [Example A31] | 2.3 nM | 3.4 nM | 25 nM | 10 nM | 13 nM | 30 nM |  | 35 nM | 790 nM |  |  |  |  |  |  |  |  | 
3 | CCN1CCOc2c(cnn2C)-c2cc(cn(C)c2=O)C(=O)Nc2nc3ccccc3n2C(C)(C)C1 [Example A7, 10-Ethyl-5,12,12,26-tetramethyl-7-oxa-4,5,10,13,20,22,26-heptaazapentacyclo[22.3.1.0^{2,6}.0^{13,21}.0^{14,19}]octacosa-1(28),2(6),3,14,16,18,20,24-octaene-23,27-dione] | 279 nM | 830 nM | 1050 nM | 1160 nM | 976 nM | 803 nM | 768 nM | 424 nM | 1410 nM |  |  |  |  |  |  |  |  | 
4 | C[C@@H]1CCCOc2c(cnn2C)-c2cc(cn(C)c2=O)C(=O)Nc2nc3ccc(N4CC(N5CCOCC5)C4)cc3n2C1 [Example A45] | 5.1 nM | 16 nM | 8.6 nM | 14 nM | 9.3 nM | 29 nM | 20 nM | 15 nM | 245 nM |  |  |  |  |  |  |  |  | 
5 | CN(C)C1CN(c2ccc3nc4n(c3c2)C23CCC(CN(CCOc5c(cnn5C)-c5cc(cn(C)c5=O)C(=O)N4)C2)C3)C1 (single isomer, unassigned) [Example A65A] |  |  |  |  |  |  |  |  |  | 209 nM | 452 nM | 945 nM | 561 nM | 656 nM | 1970 nM | 652 nM | 710 nM | 2200 nM
6 | CN1CCN(C2CN(c3ccc4nc5n(c4c3)C34CCC(CN(CCOc6c(cnn6C)-c6cc(cn(C)c6=O)C(=O)N5)C3)C4)C2)CC1 (single isomer, unassigned) [Example A70A] |  |  |  |  |  |  |  |  |  | 188 nM | 411 nM | 603 nM | 452 nM | 463 nM | 1870 nM | 517 nM | 554 nM | 3100 nM
7 | C[C@@H]1CCCOc2c(cnn2C)-c2cc(cn(C)c2=O)C(=O)Nc2nc3ccc(N4CCC5(CCN(C)C5)C4)cc3n2C1 (some centres unmarked) [Example A34] | 1.1 nM | 1.3 nM | 4.6 nM | 4.2 nM | 8.9 nM | 9.8 nM | 5 nM | 9.1 nM | 587 nM |  |  |  |  |  |  |  |  | 
8 | C[C@@H]1CCCOc2c(cnn2C)-c2cc(cn(C)c2=O)C(=O)Nc2nc3ccc(N4CC5CCN(C)C5C4)cc3n2C1 (some centres unmarked) [Example A32] | 0.43 nM | 1.5 nM | 3 nM | 2.8 nM | 2.9 nM | 9.1 nM | 3.8 nM | 7.3 nM | 248 nM |  |  |  |  |  |  |  |  | 
9 | Cn1ncc2c1OCCN1CC3CCC(C3)(C1)n1c(nc3ccc(N4CCC(N5CC(F)C5)C4)cc31)NC(=O)c1cc-2c(=O)n(C)c1 (single isomer, unassigned) [Example A94A1, 5-[3-(3-Fluoroazetidin-1-yl)pyrrolidin-1-yl]-15,21-dimethyl-23-oxa-2,9,11,15,20,21,26-heptaazaheptacyclo[24.4.1.1^{1,28}.1^{13,17}.0^{2,10}.0^{3,8}.0^{18,22}]tritriaconta-3,5,7,9,13,17(33),18(22),19-octaene-12,16-dione] |  |  |  |  |  |  |  |  |  | 936 nM | 2960 nM | 754 nM | 1800 nM | 882 nM | 2650 nM | 2030 nM | 2330 nM | 3540 nM
10 | CN1CC2CN(c3ccc4nc5n(c4c3)C34CCC(CN(CCOc6c(cnn6C)-c6cc(cn(C)c6=O)C(=O)N5)C3)C4)CC2C1 (single isomer, unassigned) [Example A68A] |  |  |  |  |  |  |  |  |  | 196 nM | 409 nM | 480 nM | 402 nM | 366 nM | 1120 nM | 543 nM | 460 nM | 5320 nM
11 | CN(C)C1CN(c2ccc3nc4n(c3c2)C23CCC(CN(CCOc5c(cnn5C)-c5cc(cn(C)c5=O)C(=O)N4)C2)C3)CC1(F)F (single isomer, unassigned) [Example A99A] |  |  |  |  |  |  |  |  | 4930 nM | 966 nM | 2900 nM | 372 nM | 1560 nM | 874 nM | 2630 nM | 1250 nM | 3090 nM | 
12 | CN1CCN(C2CCN(c3ccc4nc5n(c4c3)C34CCC(CN(CCOc6c(cnn6C)-c6cc(cn(C)c6=O)C(=O)N5)C3)C4)C2)CC1 (single isomer, unassigned) [Example A80B, 15,21-Dimethyl-5-[3-(4-methylpiperazin-1-yl)pyrrolidin-1-yl]-23-oxa-2,9,11,15,20,21,26-heptaazaheptacyclo[24.4.1.1^{1,28}.1^{13,17}.0^{2,10}.0^{3,8}.0^{18,22}]tritriaconta-3,5,7,9,13,17(33),18(22),19-octaene-12,16-dione] |  |  |  |  |  |  |  |  |  | 0.69 nM | 1.3 nM | 0.69 nM | 0.8 nM | 2.5 nM | 2.7 nM | 1.2 nM | 3.3 nM | 483 nM
13 | Cn1ncc2c1OCCN1CC3CCC(C3)(C1)n1c(nc3ccc(N4CCOCC4)cc31)NC(=O)c1cc-2c(=O)n(C)c1 (single isomer, unassigned) [Example A62A, 15,21-Dimethyl-5-(morpholin-4-yl)-23-oxa-2,9,11,15,20,21,26-heptaazaheptacyclo[24.4.1.1^{1,28}.1^{13,17}.0^{2,10}.0^{3,8}.0^{18,22}]tritriaconta-3,5,7,9,13,17(33),18(22),19-octaene-12,16-dione] |  |  |  |  |  |  |  |  |  | 393 nM | 1350 nM | 2150 nM | 1200 nM | 2380 nM | 1050 nM | 1400 nM | 1320 nM | 7120 nM
14 | CN1CCN(c2ccc3nc4n(c3c2)C23CCC(CN(CCOc5c(cnn5C)-c5cc(cn(C)c5=O)C(=O)N4)C2)C3)CC1 (single isomer, unassigned) [Example A63A] |  |  |  |  |  |  |  |  |  | 324 nM | 540 nM | 2370 nM | 1020 nM | 988 nM | 3690 nM | 929 nM | 841 nM | 9370 nM
15 | CN(C)CCN(C)c1ccc2nc3n(c2c1)CCN(CC(F)F)CCOc1c(cnn1C)-c1cc(cn(C)c1=O)C(=O)N3 [Example A4, 10-(2,2-Difluoroethyl)-16-{[2-(dimethylamino)ethyl](methyl)amino}-5,26-dimethyl-7-oxa-4,5,10,13,20,22,26-heptaazapentacyclo[22.3.1.0^{2,6}.0^{13,21}.0^{14,19}]octacosa-1(28),2(6),3,14,16,18,20,24-octaene-23,27-dione] | 77 nM | 811 nM | 56 nM | 63 nM | 76 nM | 585 nM | 788 nM | 183 nM | 2540 nM |  |  |  |  |  |  |  |  | 
